Laboratory results as given in publication PMC6000956, “Immunomodulatory activities of pixatimod: emerging nonclinical and clinical data, and its potential utility in combination with PD-1 inhibitors” (Journal for Immunotherapy of Cancer, 2018).
Marks after values point to notes of the source that are not given here.

What was measured:
[1] = design: method as in PMID 21285983; conditions: tumor-bearing immunocompetent mice; cited from earlier work
advanced cancer patients = system: advanced cancer patients; design: method as in PMID 29531325; conditions: cited from earlier work
4T1.2 cells = assay: Syngeneic 4T1.2 breast cancer model, tumor growth; type: in vivo, Balb/c mice; conditions: day 18
Description: (§1) Female Balb/c mice (6–8 weeks) were obtained from the Walter & Eliza Hall Institute (Melbourne, Australia). Animal experiments were performed in accordance with institutional guidelines of the Peter MacCallum Cancer Centre. To determine the utility of pixatimod in combination with a PD-1 checkpoint inhibitor antibody (clone RMP1–14 or isotype control antibody 2A3, Bio-X-Cell, NH, USA), mice were inoculated with 1 × 10^5 4T1.2 cells into the mammary fatpad. One week later, mice with similar sized tumors (mean tumor volume 56 mm^3) were randomised into four groups (n = 6 mice per group): saline + isotype antibody, pixatimod + isotype antibody, saline + anti-PD-1 antibody and pixatimod + anti-PD-1 antibody. Pixatimod was administered at 15 mg/kg IP weekly for 3 weeks (days 1, 8 and 15) and anti-PD-1 or isotype antibody (200 μg) were given IP on days 1, 4, 8, 11 and 15. […]
In the 4T1.2 model, the percentage tumor growth inhibition was determined according to the following formula: 100 × (1-ΔT/ ΔC) where ΔC and ΔT were calculated by subtracting the mean tumor volume in each group on day 1 of treatment from the mean tumor volume on the day of analysis. […] The frequency of clinical observations, and necropsy and histopathology findings, was calculated as applicable. […]

4T1.2 tumors = assay: Flow cytometry of immune cells in 4T1.2 tumors and spleens (satellite groups, day 11); type: in vivo, Balb/c mice
Description: as §1, with “15. The experiment was ended on day 18 post treatment initiation (25 days post inoculation) due to emerging toxicities in all treatment groups (e.g. piloerection).” for “15.”
Immune cells from the collagenase (Collagenase IV, Worthington Biochemical Corporation, NJ, USA) processed tumors and spleens were analysed by flow cytometry using an LSR II analyser (BD Biosciences). […]

NK cells = assay: NK cell activation in spleen by route of administration; type: in vivo, C57BL/6 mice; conditions: 20 mg/kg IP, IV or SC, spleens 2 days later; similar magnitude irrespective of route
Description: To investigate the effect that pixatimod route of administration has upon the activity of this compound, C57BL/6 mice were treated with pixatimod 20 mg/kg intraperitoneally (IP), intravenously (IV) or subcutaneously (SC) and 2 days later, spleens were isolated to study the activation levels of NK cells for surface expression of CD69 or intracellular expression of IFN-γ. Antibodies were CD3ε (145-2C11), NK1.1 (PK136), CD69 (H1.2F3), IFN-γ (XMG1.2), hamster IgG1 isotype (G235–2356) and rat IgG1 isotype (R3–34) were from BD Biosciences (San Jose, CA, USA). Intracellular staining for IFN-γ was performed following ex vivo stimulation of splenocytes for 4 h with 20 ng/ml PMA and 50 ng/ml ionomycin in the presence of 5 μg/mL brefeldin A. Intracellular staining for IFN-γ was performed following treatment with Cytofix/Cytoperm (BD Biosciences) solution. Flow cytometric data were acquired using a FACSCanto flow cytometer (BD Biosciences), and events were analysed using FlowJo Version 9.9.6 software (TreeStar, Ashland, OR, USA).

[2] = design: method as in PMID 25754234; conditions: Mouse, 15 mg/kg IV (HED 73 mg); cited from earlier work
rats = assay: Repeated weekly SC toxicology in rats (organ weights); type: in vivo; conditions: weekly SC x5, 3, 12 and 48 mg/kg
Description: Supplementary file 40425_2018_363_MOESM2_ESM.pptx: Additional file 2: Effect of pixatimod dosing on selected organ weights in beagle dogs (IV and SC) and rats (SC). Repeated weekly IV exposure (× 5) of pixatimod increases the relative weights of liver (A) and kidney (B) but not thymus (C) nor spleen (D) in beagle dogs. […] Data shown is for combined sexes. […] Study size, n = 15 for control and 48 mg/kg groups and n = 10 for 3 and 12 mg/kg groups. […] Study size, n = 5 for control and 20 mg/kg groups and n = 3 for 2.5 and 7.5 mg/kg groups. *P < 0.05, **P < 0.01, ***P < 0.001 versus control (Kruskal-Wallis test for the dog study, ANOVA followed by Dunnett’s comparison for the rat study). (PPTX 65 kb)

CC(C)CCC[C@@H](C)[C@H]1CC[C@H]2[C@@H]3CC[C@H]4C[C@@H](O[C@@H]5O[C@H](COS(=O)(=O)O)[C@@H](O[C@H]6O[C@H](COS(=O)(=O)O)[C@@H](O[C@H]7O[C@H](COS(=O)(=O)O)[C@@H](O[C@H]8O[C@H](COS(=O)(=O)O)[C@@H](OS(=O)(=O)O)[C@H](OS(=O)(=O)O)[C@H]8OS(=O)(=O)O)[C@H](OS(=O)(=O)O)[C@H]7OS(=O)(=O)O)[C@H](OS(=O)(=O)O)[C@H]6OS(=O)(=O)O)[C@H](OS(=O)(=O)O)[C@H]5OS(=O)(=O)O)CC[C@]4(C)[C@H]3CC[C@]12C [pixatimod]
exposure (AUC) required to achieve efficacy as a monotherapy [1]: 687 µg·h/mL | dose up to which the compound was well tolerated (advanced cancer patients; IV infusion, monotherapy clinical trial): up to 100 mg | patients with treatment emergent adverse events possibly, likely, or certainly related to pixatimod (advanced cancer patients; Phase Ia monotherapy trial): 20 | estimated median duration of SD (advanced cancer patients): 57 days | patients with stable disease (SD) at 8 weeks by RECIST 1.1 (advanced cancer patients; of 16 patients with efficacy assessments): six | doses inducing flu-like symptoms in patients (advanced cancer patients; required prophylactic paracetamol): ≥ 50 mg | disease control rate at 8 weeks (advanced cancer patients; six of sixteen assessed): 38% | Tumor growth compared to the vehicle plus isotype antibody (Control) group (4T1.2 cells): significantly inhibited | tumor growth inhibition (%TGI) (4T1.2 cells; pixatimod 15 mg/kg IP weekly x3, antibody 200 μg IP twice weekly): 68% | abundance of CD4+ or CD8+ T cells or NK cells in the spleens compared to control mice (4T1.2 tumors; day 11, spleens): little or no increase | intratumoral NK cells (4T1.2 tumors; pixatimod alone, 4T1.2 tumors): didn’t significantly increase | expression of IFN-γ and CD69 on NK cells (NK cells): increased | AUC0-last Week 1 [2]: 1358 ^c μg.h/mL | Relative spleen weight (rats): increased in a dose-dependent manner
